{"source": "paper PMC4865888", "about": "(Cell chemical biology, 2016)", "key": {"[1]": {"system": "DENV2 NGC", "assay": "time-of-addition experiments, BHK21 cells, viral plaque assay", "assay_type": "cell-based, dengue virus", "conditions": "15 μM, BHK21, MOI 1, yield at 24 hpi"}, "[2]": {"system": "DENV2 NGC", "assay": "low MOI multiple replication cycle infection experiment", "assay_type": "cell-based, dengue virus", "conditions": "MOI 0.01, treatment delayed until 24 hpi; GNF-2 15 μM, 8b 5 μM; titers at 48, 72 hpi"}, "[3]": {"system": "DENV2 NGC", "conditions": "dose-response, inhibitor present during entire single round, MOI 1, 24 hpi"}, "[4]": {"biological_target": "recombinant, soluble DENV2 E protein (sE), prefusion (Dengue virus type 2, UniProt P14340)", "assay": "Alphascreen assay, GNF2-biotin and prefusion sE", "conditions": "increasing concentrations, 20 nM to 10 μM"}}}
{"smiles": "NC(=O)c1cccc(-c2cc(Nc3ccc(OC(F)(F)F)cc3)ncn2)c1", "note": "[GNF-2]", "values": [{"measurement": "antiviral effect when added post-infection (POST, 0-5 hours)", "setting": "[1]", "value": "inhibit DENV2"}, {"measurement": "antiviral effect when pre-incubated with viral inoculum (PRE virus)", "setting": "[1]", "value": "additional antiviral activity"}, {"measurement": "inhibition of DENV2 over multiple replication cycles", "setting": "[2]", "value": "inhibit DENV2"}, {"measurement": "antiviral activity in single-cycle virus yield reduction assay", "setting": "[3]", "value": "more antiviral activity than imatinib"}, {"measurement": "competition with GNF2-biotin for prefusion sE (Alphascreen signal)", "setting": "[4]", "value": "decrease the Alphascreen signal"}]}
